The test system of data set [1] is TF-1 cells (FLT3 wild type). Briefly: Cell proliferation, trypan blue counting, TF-1. In kind it is cell-based, human. Particulars: 200 nM. The protocol:
(§1) (a) MV4-11 and MOLM-14 FLT3-ITD positive cells, KG1, HL-60 and TF-1 FLT3 wild type cells, and K562 FLT3 negative cells were cultured in the presence of the CDC25 inhibitor IRC-083864 (200 nM). Cells were harvested each day and counted after trypan blue coloration. The graph represents three independent experiments.
(§2) Cell lines and reagents. Human acute myeloid leukemia cell lines MOLM-14 (Matsuo Y et al, Leukemia 1997) (kindly provided by Martin Carroll, University of Pennsylvania, Philadelphia, Pa., USA) MV4-11, K562 (ACC-102 and ACC-10, DSMZ, Braunschweig, Germany) and FLT3-ITD-expressing murine BaF3 cells were cultured in RPMI 1640 medium (Gibco, Life Technologies, Carlsbad, Calif., USA) supplemented with 10% fetal bovine serum (Sigma, Saint Louis, Calif., USA). TF-1 (ATCC-CRL2003) cells were cultured in RPMI 1640 medium with 10% fetal bovine serum and GM-CSF 2 ng/ml. Concerning MOLM-14 cell line, the presence of a monoallelic 21 bp FLT3-ITD mutation and of an MLL-containing ins(11; 9)(q23;p22p23) were verified (Hematology laboratory of Toulouse University Hospital, Prof E. Delabesse and Dr I. Luquet). KG1 and HL-60 (ACC-14 and ACC-3, DSMZ) cell lines were grown in Iscove's Modified Dulbecco's Medium (IMDM, Gibco) plus 20% FBS. All cells were grown in the presence of 100 units/ml of penicillin and streptomycin (Invitrogen) at 37° C. and 5% CO2.

Data set [2] in a line: Preliminary toxicity assays in NSG mice. The class given is in vivo. The source says:
In vivo experiments. Animals were used in accordance to a protocol reviewed and approved by the Institutional Animal Care and User Ethical Committee of the UMS006 and Region Midi-Pyrénées (Approval#13-U1037-JES08). NOD/LtSz-scid IL-2Rγchainnull (NSG) mice (Sanchez P V et al) were produced at the Genotoul Anexplo platform in Toulouse (France) using breeders obtained from The Charles River Laboratory. Mice were housed in sterile conditions using HEPA filtered micro-isolators and fed with irradiated food and acidified water. Transplanted mice were treated with antibiotics (enrofloxacin) for the duration of the experiment. […] Adult mice (6 or 7-week old) were treated with 20 mg/kg Busulfan (Busilvex, Pierre Fabre, France) by i.p. administration 24 hours before injection of leukemic cells. Cultured MOLM-14 cells were washed in PBS and cleared of aggregates and debris using a 0.2 mm cell filter, and suspended in PBS at a final concentration of 2 million cells per 200 μL of PBS per mouse for i.v. injection. IRC-083864 (5 mg/kg/week) was then administrated to leukemic mice by i.p. injection. Daily monitoring of mice for symptoms of disease (ruffled coat, hunched back, weakness and reduced motility) determined the time of animal euthanasia. Cell differentiation was monitored after two IRC-083864 injections: mice were humanely killed in accordance with IACUC protocols. […]

Another data set has as its target Cdc25A (Homo sapiens, UniProt P30304). Particulars: cited from earlier work.
In another data set the target is Cdc25C (Homo sapiens, UniProt P30307). Particulars: cited from earlier work.
Sequence of Cdc25C (P30307 whole entry): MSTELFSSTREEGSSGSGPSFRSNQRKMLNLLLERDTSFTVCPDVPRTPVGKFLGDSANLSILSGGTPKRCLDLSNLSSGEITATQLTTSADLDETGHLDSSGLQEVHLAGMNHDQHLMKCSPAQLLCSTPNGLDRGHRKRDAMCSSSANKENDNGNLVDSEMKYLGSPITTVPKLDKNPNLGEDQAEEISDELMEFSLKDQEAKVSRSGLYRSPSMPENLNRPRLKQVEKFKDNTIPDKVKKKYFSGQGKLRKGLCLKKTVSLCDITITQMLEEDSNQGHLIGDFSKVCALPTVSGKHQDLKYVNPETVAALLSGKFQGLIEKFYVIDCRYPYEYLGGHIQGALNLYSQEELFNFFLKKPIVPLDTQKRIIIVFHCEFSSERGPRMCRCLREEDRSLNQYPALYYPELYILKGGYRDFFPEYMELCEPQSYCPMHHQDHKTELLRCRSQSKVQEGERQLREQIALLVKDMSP
In data set [3] the test system is K562 cells (FLT3 negative). Nature of the data set: Cell proliferation, trypan blue counting, K562. The class given is cell-based, human. Particulars: 200 nM. The protocol: as §1, §2
In a further data set the test system is MOLM-14 and MV4-11 cells. Nature of the data set: Differentiation of FLT3-ITD AML cell lines (surface markers, morphology). The class given is cell-based, human. As for the experimental part:
(a-b) MOLM-14 and MV4-11 cells were treated for different times with IRC-083864 (100 nM and 200 nM) and the expression of the cell surface markers CD11b, CD14 and CD15 were followed by flow cytometry analysis. (c) MOLM-14 and MV4-11 cells were treated for different times with IRC-083864 (100 nM) and morphological changes were estimated by microscopy after cells were cytospun and stained at days 8 and 13. Original magnification ×100. (d) MOLM-14 cells were treated for different times with IRC-083864 (100 nM) and c-myc expression as well as C/EBPα phosphorylation on serine 21 were analyzed by western blot at day 1, and C/EBPε expression after 6 days of treatment. (e) MOLM-14 cells were transfected with CDC25A shRNA The expression of the cell surface markers CD11b, CD14 and CD15 were followed by flow cytometry analysis at day 3 and 6 (upper panel), and their morphology was analyzed by microscopy after 6 days (lower panel). Original magnification ×100. (f) MOLM-14 cells were transfected with CDC25A siRNA, and their morphology was analyzed by microscopy after 3 days (upper panel). Original magnification ×100. The efficiency of CDC25A siRNA was assessed by western blot analysis (lower panel).
Lentiviral infections. To generate lentiviral vectors expressing CDC25A protein, sequences were cloned into the pTrip-TAL-Ires-GFP lentiviral vector. We used 293-T packaging cells, co-transfected with lentiviral protein (GAG, POL, and ENV) encoding plasmids, and plasmids containing a control or CDC25A genes, separately. Supernatants containing lentivirus were collected 48 h after transfection, during 3 consecutive days. MOLM-14 cells were plated at 5×10^5 cells in 200 μl in serum-free medium and 5 μl of lentiviral supernatant was added during 3 h. Cells were then grown in 10% FBS RPMI medium.
Flow cytometry. Apoptotic cells were detected with Annexin V-FITC detection kit from BD Pharmingen (San Diego, Calif., USA) according to the manufacturer instructions. To evaluate AML cell differentiation, cells were stained for 30 min with the following anti-human monoclonal antibodies: CD11b-PE (Beckman Coulter), CD14-FITC (BD Biosciences), CD15-APC (BD Biosciences). For patient samples, additional hCD45-APC-H7 (BD Biosciences), Annexin V-Pacific Blue (BioLegend, San Diego, Calif., USA) and 7-AAD (Sigma) were used; and for bone marrow mice cells, additional CD33-FITC, CD44-PE Cy7, mCD45-PerCP Cy 5.5, CD14-Alexa 700 were used. Data were collected on a LSRII or a LSRFortessa cytometer (BD Biosciences), and analyzed with FlowJo software. A minimum of 10,000 events was collected.
Morphological examination. […] were spun at 500 rpm for 5 minutes onto glass slides and May-Grünwald-Giemsa stained at the Toulouse University Hospital hematology laboratory.

Structures are written as SMILES.

Consider one compound from patent publication US10179914B2, “CDC25A inhibitor for the treatment of drug resistant cancer or for the prevention of tumor relapse” (INSERM (INSTITUT NATIONAL DE LA SANTÉ ET DE LA RECHERCHE …, priority 2014, dated 2019).

Sequence of Cdc25A (P30304 whole entry): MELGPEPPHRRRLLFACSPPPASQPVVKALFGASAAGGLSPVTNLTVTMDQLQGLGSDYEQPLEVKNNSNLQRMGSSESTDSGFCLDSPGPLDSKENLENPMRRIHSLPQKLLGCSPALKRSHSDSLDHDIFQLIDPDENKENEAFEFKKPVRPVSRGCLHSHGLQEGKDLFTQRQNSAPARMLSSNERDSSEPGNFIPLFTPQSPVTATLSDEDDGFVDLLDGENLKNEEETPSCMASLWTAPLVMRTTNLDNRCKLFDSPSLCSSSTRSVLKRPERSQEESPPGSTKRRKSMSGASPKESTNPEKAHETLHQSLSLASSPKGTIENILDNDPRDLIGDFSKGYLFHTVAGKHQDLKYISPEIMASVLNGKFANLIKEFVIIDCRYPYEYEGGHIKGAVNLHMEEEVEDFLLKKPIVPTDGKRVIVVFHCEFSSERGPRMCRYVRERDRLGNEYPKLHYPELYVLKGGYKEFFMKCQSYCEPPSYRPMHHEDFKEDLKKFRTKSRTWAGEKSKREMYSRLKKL

As for `Cc1nc2c(s1)C(=O)C=C(NCCCN(C)CCCNC1=CC(=O)c3nc(-c4cc(F)ccc4F)oc3C1=O)C2=O` [IRC-083864], in data set [1], the “proliferation of TF-1” value is “did not decrease”. In addition, the “toxicity in male versus female NSG mice” value in data set [2] is “higher toxicity”. The “IC50 Cdc25 enzyme type A” value on Cdc25A was “nanomolar range”. Moreover, the “IC50 Cdc25 enzyme type C” value on Cdc25C was “nanomolar range”. For the same compound, the “proliferation of K562” value in data set [3] is on record as “did not decrease”. Besides, the “expression of CD11b” value in the data set on MOLM-14 and MV4-11 cells (100 nM and 200 nM, as early as two days) was “induced in a dose dependent manner”. Besides, in the data set on MOLM-14 and MV4-11 cells (100 nM, 8 and 13 days), the morphological analysis entry is on record as “monocytic-like nuclear changes”. For the same compound, in the data set with MOLM-14 and MV4-11 cells (after 8 days), the “expression of CD15” value is “either decreased or did not change significantly”. In addition, in the data set with MOLM-14 and MV4-11 cells (after 8 days, both cell lines), the “expression of monocytic marker CD14” value was “increased”.
